Measured values taken from US9896415B2, “Chalcone derivatives having an anti-allergic activity” (UNIVERSITE CLAUDE BERNARD LYON I, priority 2013, dated 2018).
“Also recorded” adds a separate entry of the source. Read-outs that look alike come from different tables or passages of the source.

What was measured:
normal human basophils = assay: Degranulation of normal human basophils after anti-IgE antibody, CD63 and CD203c expression by flow cytometry; format: cell-based; conditions: 4 donors; for Emax: Homo sapiens, effect-dose study, 1 to 100 micromolars; for dose effect, CD63 marker / dose effect, CD203c marker: between 1 and 100 micromolars, no plateau effect
Text: The compounds according to the invention have a substantial protective activity towards the degranulation of normal human basophils, such that it may be evaluated by the overexpression of CD203c and of CD63 after exposure to an anti-IgE antibody. In particular, the concentration of the compound according to the invention giving the possibility of obtaining a 50% protective effect (with respect to a value of 100% corresponding to the control achieved in the absence of a compound according to the invention) belongs to the range from 1 to 100 micromolar.
a) Activity on the Degranulation of Normal Human Basophils CD203c and CD 63
This test consists of analyzing with flow cytometry the expression of the membrane markers CD203c and CD63 on normal human basophils. For this blood from healthy donors is exposed to an antibody directed against immunoglobulins E (IgE) which leads to activation and degranulation of the basophils, causing an increase in the expression of CD203c and CD63. […] As the compounds of interest are dissolved in dimethylsulfoxide (DMSO), a control is also produced by incubating the basophils in the presence of DMSO without any active ingredient.

asthma model in mice = assay: Ovalbumin (OVA) asthma model in mice: plethysmography, broncho-alveolar wash and lung cytology; format: in vivo; conditions: one day after last OVA challenge; for intrabronchial infiltrate: broncho-alveolar wash; for respiratory function: Penh in response to increasing doses of metacholine: non-invasive plethysmography, i.p. daily
Text: b) Effect on the Respiratory Function in an Asthma Model in Mice
The compounds according to the invention were also subject to tests in vivo. Cromoglycate was used as a reference compound since presently it is the only compound presently marketed having been described as having an effect on the degranulation of basophils.
• The model used is an ovalbumin model (ova). The procedure includes: • 4 weeks of sensitization with ova solubilized in a solution containing alum and injected intra-peritoneally (I-P). • 1 week of challenge with 3 intranasal challenges of ova solubilized in phosphate buffer PBS for 3 subsequent days. • Injections of PBS, of compound (I.1) or of cromoglycate were carried out all along the challenge phase and continued until the date of analysis in an amount of one injection per day intra-peritoneally. • The analyses were carried out 1 and 5 days after the last intranasal challenge. • These analyses comprise:
One Day after the Last Challenge • an analysis the of the respiratory function by non-invasive plethysmography on 10 mice per group. The respiratory function is analysed in response to an increasing dose of metacholine (broncho-constrictor). • recovery and analysis of the broncho-alveolar wash (count of the number of cells, and cytological analysis) on 5 mice. • dissection of the lungs for cytological analysis (microscopic study after staining) on the same 5 mice.
Five Days after the Last Challenge • an analysis of the pulmonary resistance by the forced oscillation technique (invasive method) on the 5 remaining mice of different groups. The pulmonary resistance is analyzed in response to an increasing dose of metacholine (bronchoconstrictor). • recovery and analysis of the broncho-alveolar wash (counting the number of cells, and deposition on a slide by cytospin for cytological analysis) on these 5 mice.
A compound group (1.1) (n=10), an i-cm group (cromoglycate, n=10) and an i-PBS group (n=10).
The compound (I.1) is dissolved in a DMSO solution. This stock solution is then diluted in an ethanol:PBS (vol:vol) solution before intraperitoneal administration.
The Penh (enhanced pause) values, calculated from plethysmography measurements, express the prolongation of the expiratory pause time observed in subjects having a reduction of the bronchial calibre and are correlated with the respiratory resistance. A decrease in the Penh values therefore corresponds to a protective effect towards bronchoconstriction induced by OVA.

[1] = read-out: maximum effect on CD63
[2] = read-out: maximum effect on CD203c
[3] = flow cytometry cytology, compared with PBS group

| SMILES | Emax (normal human basophils; [1]) [%] | Emax (normal human basophils; [2]) [%] | dose effect, CD63 marker (normal human basophils) | dose effect, CD203c marker (normal human basophils) | intrabronchial infiltrate (asthma model in mice; compared with PBS group) | T lymphocytes in the intrabronchial infiltrate (asthma model in mice; [3]) | eosinophils in the intrabronchial infiltrate (asthma model in mice; [3]) | intra-pulmonary hypereosinophilia (asthma model in mice; lungs, flow cytometry cytology) | respiratory function: Penh in response to increasing doses of metacholine (asthma model in mice; compared with PBS group) |
| --- | --- | --- | --- | --- | --- | --- | --- | --- | --- |
| COc1cc(OC)c(/C=C/C(=O)c2c(O)cc(OC)c(C3CCN(C)CC3)c2OC)c(OC)c1 [compound (I.1)] | 80 | 40 | A dose effect is observed | A dose effect is observed | significant decrease in the intrabronchial infiltrate | reduction | a reduction in the eosinophils | much less substantial | the difference is only significant for the dose at 40 mg/ml; also recorded: improves the respiratory function of the mice |
| O=C(O)c1cc(=O)c2c(OCC(O)COc3cccc4oc(C(=O)O)cc(=O)c34)cccc2o1 [cromoglycate, reference compound] |  |  |  |  | does not exhibit any significant difference |  | does not show any significant reduction in the eosinophil infiltrate |  | same increases in Penh |
| COc1cc(O)c(C(=O)/C=C/c2c(Cl)cccc2Cl)c(OC)c1C1CCN(C)CC1 [compound (I.3)] | 80 | 40 | A dose effect is observed | A dose effect is observed |  |  |  |  |  |
| COc1cccc(OC)c1/C=C/C(=O)c1c(O)cc(OC)c(C2CCN(C)CC2)c1OC [compound (I.2)] | 80 | 40 | A dose effect is observed | A dose effect is observed |  |  |  |  |  |
